The values that follow come from patent publication US6858638B2, “Substituted indazoles, compositions containing them, method of production and use” (Aventis Pharma S.A., priority 2002, dated 2005).

In general, melting point refers to the temperature of the solid-liquid transition.

One data set addresses T1, Aurora2 kinase (Homo sapiens, UniProt O14965).
T1 construct: A complete recombinant Aurora2 enzyme; His tag (N); made in house; host or cells: E. coli
T1 sequence (O14965 1-403): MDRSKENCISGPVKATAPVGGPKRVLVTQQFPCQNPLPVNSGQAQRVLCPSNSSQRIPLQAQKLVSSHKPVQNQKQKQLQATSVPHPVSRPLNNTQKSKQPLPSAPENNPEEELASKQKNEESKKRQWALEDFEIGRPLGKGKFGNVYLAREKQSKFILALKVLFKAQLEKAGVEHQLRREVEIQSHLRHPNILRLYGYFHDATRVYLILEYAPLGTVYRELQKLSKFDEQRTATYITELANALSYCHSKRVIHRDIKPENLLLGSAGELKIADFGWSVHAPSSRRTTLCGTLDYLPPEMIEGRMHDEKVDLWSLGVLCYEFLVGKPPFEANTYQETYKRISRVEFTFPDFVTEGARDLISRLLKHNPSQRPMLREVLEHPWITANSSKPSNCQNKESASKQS
In words: Aurora2 kinase radioactivity scintillation assay using nickel chelate (NuMA substrate). The following applies: 10 μM; read-out: Aurora2 % inhib at 10 μM. The format is biochemical. In a few lines: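 His-tagged full-length Aurora2 (0.02 μM, E. coli) phosphorylating His-tagged NuMA C-terminal fragment (0.5 μM) with 1 μM ATP plus [33P]-ATP, 30 min at 37 °C, pH 7.5 Tris buffer with MgCl2. Nickel-chelate scintillation read; percent inhibition versus no-compound control.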

Another data set concerns c-Src protein. In words: Src kinase phosphorylation of biotinylated cdc2 substrate, fluorescence (DELFIA). The format is biochemical, human. An outline of the steps:
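Recombinant human c-Src (SH3, SH2 and catalytic domains; baculovirus) phosphorylates biotinylated cdc2 substrate in 50 mM Tris, 10 mM MgCl2 with 10 μM ATP, 60 min at 30° C. Product captured on streptavidin and detected by Europium-anti-phosphotyrosine fluorescence (DELFIA). Reported as % inhibition of no-compound control.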

In another data set the target is T2, human Tie2 (Homo sapiens, UniProt Q02763).
T2 construct: amino acids of the intracellular domain 776-1124; made in house; host or cells: baculovirus expression system (vector pFastBacGT)
T2 sequence (Q02763 776-1124): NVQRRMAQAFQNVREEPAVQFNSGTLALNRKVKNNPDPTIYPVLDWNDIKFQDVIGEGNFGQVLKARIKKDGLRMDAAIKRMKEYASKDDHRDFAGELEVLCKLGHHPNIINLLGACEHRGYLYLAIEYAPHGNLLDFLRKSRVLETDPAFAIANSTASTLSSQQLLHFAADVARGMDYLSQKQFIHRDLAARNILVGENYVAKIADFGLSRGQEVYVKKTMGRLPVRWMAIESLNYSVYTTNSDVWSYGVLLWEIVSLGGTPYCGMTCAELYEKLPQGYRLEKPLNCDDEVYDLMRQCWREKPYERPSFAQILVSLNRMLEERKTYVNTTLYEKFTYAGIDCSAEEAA
The data set is described as follows: Tie2 phosphorylation of PLC, FlashPlate radioactivity assay. Type of data set: biochemical. The following applies: read-out: TIE2 % inhib at 10 μM. The procedure: The coding sequence of human Tie2 corresponding to the amino acids of the intracellular domain 776-1124 was generated by PCR using the cDNA isolated from human placenta as model. This sequence was introduced into a baculovirus expression vector pFastBacGT in the form of a GST fusion protein.
The inhibitory effect of the molecules is determined in an assay of phosphorylation of PLC by Tie2 in the presence of GST-Tie2 purified to approximately 80% homogeneity. The substrate is composed of the SH2-SH3 fragments of PLC exprressed in the form of a GST fusion protein.
The kinase activity of Tie2 is measured in a 20 mM MOPS buffer, pH 7.2, containing 10 mM MgCl2, 10 mM MnCl2, 1 mM DTT and 10 mM of glycerophosphate. A reaction mixture composed of 70 μl of kinase buffer containing 100 ng of GST-Tie2 enzyme per well is placed in a FlashPlate 96-well plate kept on ice. 10 μl of the test molecule diluted in DMSO at a maximum concentration of 10% are then added. For a given concentration, each measurement is carried out in quadruplicate. The reaction is initiated by adding 20 μl of solution containing 2 μg of GST-PLC, 2 μM of cold ATP and 1 μCi of ^33P[ATP]. After incubation for 1 hour at 37° C., the reaction is stopped by adding 1 volume (100 μl) of 200 mM EDTA. After removing the incubation buffer, the wells are washed three times with 300 μl of PBS. The radioactivity is measured on a Wallac MicroBeta 1450.
The inhibition of the Tie2 activity is calculated and expressed as percentage inhibition compared to the control activity determined in the absence of compound.

Regarding `CS(=O)(=O)c1ccccc1S(=O)(=O)Nc1ccc2[nH]nc(-c3ccccc3)c2c1` [Example 7, 2-Methylsulfonyl-N-(3-phenyl-1H-indazol-5-yl)benzenesulfonamide], the melting point amounted to 223 °C. The inhibition at 10 µM at Aurora2 kinase is 97%. Further, in the data set with c-Src protein, the “SRC % inhib at 10 μM” value worked out at 89%. Besides, the inhibition at 10 µM at human Tie2 is 86%.

Turning to `O=S(=O)(Nc1ccc2[nH]nc(-c3ccccc3)c2c1)c1cccc(F)c1` [Example 6, 3-Fluoro-N-(3-phenyl-1H-indazol-5-yl)benzenesulfonamide], the melting point amounted to 200 °C. In addition, the inhibition at 10 µM on Aurora2 kinase turned out to be 95%. Moreover, the “SRC % inhib at 10 μM” value in the data set with c-Src protein came out at 55%. For the same molecule, at human Tie2, the inhibition at 10 µM came to 74%.

For the molecule `O=S(=O)(Nc1ccc2[nH]nc(-c3ccccc3)c2c1)c1ccc(Cl)c(Cl)c1` [Example 8, 3,4-Dichloro-N-(3-phenyl-1H-indazol-5-yl)benzenesulfonamide], the melting point came to 216 °C. Also, the inhibition at 10 µM on Aurora2 kinase was determined as 59%. At human Tie2, the inhibition at 10 µM was 56%.
